Test results from patent US12084521B2, “TLR9 inhibitors to suppress inflammatory response to pathogens” (University Of Maryland, Baltimore, priority 2018, dated 2024).

Legend:
[1] = system: TLR9 signaling; assay: Plasma cytokines after i.p. ODN 1668 in mice; assay type: in vivo, C57BL/6J mice
Method: (§1) Systemic cytokine levels were measured in plasma samples obtained 1, 3, and 5 hours after intraperitoneal (i.p.) administration of 7.86 nmol (50 μg) of ODN 1668 or 67 nmol of Pam3C per mouse, using ELISA kits from Biolegend™ Inc. CPDP were dissolved in PBS and administered i.p. at the dose of 200 nmol per mouse 1 hour before administration of a TLR agonist. For survival experiments, mice were sensitized to TLR9 agonists by i.p. injection of 20 mg of D-Gal 30 minutes before administration of peptides or PBS. ODN 1668 was used at the doses of 3.93 or 7.86 nmol/mouse (25 or 50 μg/mouse) 1.5 hours after D-Gal. Animal survival was monitored for 50 hours. All agents were administered i.p. in 500 μL volume of PBS. Animals had free access to food and water during the observation period. All animal experiments were conducted in accordance with the national guidelines for the care and use of laboratory animals under a protocol that was approved by the UMB IACUC.
To test the in vivo efficacy and specificity of 9R34-ΔN, C57BL/6J mice were mock-treated or treated i.p. with a single dose of inhibitory or control peptide (200 nmol/mouse) and challenged with TLR9 agonist ODN 1668 (7.86 nmol/mouse) or TLR2/1 agonist Pam3C (67 nmol/mouse) 1 hour later. Plasma concentrations of TNFα and IL-12-p40 were measured 1, 3, and 5 hours after the challenge. Both TLR agonists increased concentrations of TNFα and IL-12-p40 in 1 hour samples from below the limit of detection to about 1.2 and about 6 ng/mL in the case of ODN 1668, and to 0.12 ng/mL and 1 ng/mL after treatment with Pam3C.
Plasma TNFα and IL-12-p40 levels following intraperitioneal administration of ODN 1668 to C57Bl/6J mice in peptide-pretreated and control mice are shown in FIG. 14A and FIG. 14B. Data shown in these figures represent the means±SEM obtained in at least three independent experiments. The statistical significance of changes in cytokine concentrations was determined by a two-way ANOVA test; *p<0.001.

[2] = system: TLR2/1 signaling; assay: Plasma cytokines after i.p. Pam3C in mice; assay type: in vivo, C57BL/6J mice; details: peptide 200 nmol/mouse i.p.; Pam3C 67 nmol/mouse
Method: as §1, with “Animals had free access to food and water during the observation period. All animal experiments were conducted in accordance with the national guidelines for the care and use of laboratory animals under a protocol that was approved by the UMB IACUC.” left out
To test the in vivo efficacy and specificity of 9R34-ΔN, C57BL/6J mice were mock-treated or treated i.p. with a single dose of inhibitory or control peptide (200 nmol/mouse) and challenged with TLR9 agonist ODN 1668 (7.86 nmol/mouse) or TLR2/1 agonist Pam3C (67 nmol/mouse) 1 hour later. Plasma concentrations of TNFα and IL-12-p40 were measured 1, 3, and 5 hours after the challenge. […]
Plasma TNFα and IL-12-p40 levels following intraperitioneal administration of ODN 1668 to C57Bl/6J mice in peptide-pretreated and control mice are shown in FIG. 14A and FIG. 14B. […] The statistical significance of changes in cytokine concentrations was determined by a two-way ANOVA test; *p<0.001.

[3] = system: TLR9-induced lethality; assay: Survival of D-Gal pretreated mice after ODN 1668; assay type: in vivo, C57Bl/6J mice
Method: as §1
With the exception for LPS, administration of a purified TLR agonist is not lethal to mice. Mice, however, can be sensitized to TLR agonists by pretreatment with D-galactosamine (D-Gal). Survival of C57Bl/6J mice pretreated with D-galactosamine and challenged with different doses of ODN 1668 was tested. Mice were first administered with D-Gal intraperitoneally at the dose of 20 mg/mouse. Thirty minutes later mice were mock-treated with PBS or treated with a CPDP at the dose 200 nmol/mouse. ODN 1668 was administered 1 hour after peptide treatment at the dose of 3.93 or 7.86 nmol/mouse.

[4] = system: myDDosome; details: BMDM pretreated with CPDP; MyD88 IP, IRAK4 blot
Method: Four million BMDMs per well were plated in 6-well plates and treated with CPDP for 30 minutes prior to stimulation with ODN 1668 for 90 minutes. Cells were lysed in 600 p L of buffer containing 20 mM HEPES (pH 7.4), 150 mM NaCl, 10 mM NaF, 2 mM Na3VO4, 1 mM EDTA, 1 mM EGTA, 0.5% Triton X-100, 0.1 mM DTT, and protease inhibitor cocktail (Roche™). Cell extracts were incubated overnight with 1 μg of anti-mouse MyD88 antibody (AF3109) (R&D Systems™, followed by a 4-hour incubation with 20 μL protein G Sepharose beads (ThermoFisherm Scientific). The beads were then washed 3 times with 500 μL of lysis buffer and boiled in 60 μL of Laemmli sample buffer (Bio-Rad™). Cell extracts were electrophoresed on 10% acrylamide gel by SDS-PAGE and transferred to PVDF membrane (Bio-Rad™). Rabbit anti-MyD88 IgG was purchased from Cell Signaling™. Mouse anti-IRAK4 IgG was obtained from Abcam™. Alkaline phosphatase-conjugated secondary antibodies against mouse and rabbit IgG were purchased from Cell Signaling™. The stabilized substrate for alkaline phosphatase was from Promega™.
TLR stimulation causes formation of myDDosome, a signaling complex composed through interactions of IRAK and MyD88 death domains. To test if peptides inhibit myDDosome formation, MyD88 was immunoprecipitated from lysates of ODN-stimulated BMDM and the precipitates analyzed for IRAK4 presence. BMDM were lysed and lysates immunoprecipitated with anti-MyD88 Ab and immune complexes assessed with anti-IRAK4 Ab 3 hours after cell treatment with ODN 1668.

[5] = system: TLR1/2 signaling; assay: TNFα mRNA in BMDM stimulated with Pam3C; assay type: cell-based, mouse; details: peptide 40 μM; P3C 0.33 μM; 1 h
Method: (§2) The cDNA obtained was amplified with gene-specific primers for mouse HPRT, TNFα, IL-10, IL-12-p40, or IL-6 and Fast SYBR Green™ master mix (Applied Biosystemsm) as previously described.
(§3) CPDPs 9R34 and 9R11 were examined for inhibition of TLR1/2, TLR4, and TLR7 signaling. BMDMs were stimulated with Pam3C, E. coli LPS, or R848 and TNFαmRNA was measured 1 hour after stimulation. Mouse BMDM were treated with 40 μM of the indicated peptides for 30 minutes prior to stimulation with ODN 1668 (1 μM), E. coli LPS (0.1 μg/mL), R848 (2.85 μM), or P3C (0.33 μM). R848 and P3C were used to specifically activate TLR7 and TLR2 signaling, respectively. TNFαmRNA expression was measured 1 h after ODN 1668 challenge and normalized to the expression of HPRT. See results in FIG. 8A, FIG. 8B, and FIG. 8C. […] The statistical significance of changes was determined by a one-way ANOVA test; *p<0.01.

[6] = system: TLR7 signaling; assay: TNFα mRNA in BMDM stimulated with R848; assay type: cell-based, mouse; details: peptide 40 μM; R848 2.85 μM; 1 h
Method: as §2, §3

[7] = higher ODN1668 dose 50 μg/mouse, peptide 200 nmol/mouse i.p.

Sequence	decrease of plasma IL-12-p40 peak ([1]; 3-hour samples, peptide 200 nmol/mouse i.p., ODN 1668 7.86 nmol/mouse)	1-hour plasma TNFα peak ([1]; peptide 200 nmol/mouse i.p. 1 hour before ODN 1668 7.86 nmol/mouse)	ODN 1668-induced plasma cytokine levels (TNFα, IL-12-p40) ([1]; peptide 200 nmol/mouse i.p., ODN 1668 7.86 nmol/mouse)	Pam3C-induced plasma cytokine levels (TNFα, IL-12-p40) [2]	protection against ODN-induced lethality (overall) ([3]; D-Gal pretreated mice)	protection of D-Gal pretreated mice (survival) ([3]; ODN 1668 lower dose 3.93 nmol/mouse, peptide 200 nmol/mouse i.p.)	mice rescued [3, 7]	protection of D-Gal pretreated mice (survival) [3, 7]	ODN 1668-induced myDDosome formation [4]	signaling induced by TLR1/2 agonist (TNFα mRNA) [5]	signaling induced by TLR7 agonist (TNFα mRNA) [6]
ALRLCLEERD [Peptide 9R34-ΔN]	approximately 25 fold	eliminated	selectively inhibited only the ODN 1668-induced cytokines	did not affect cytokine levels	protects mice from TLR9-induced lethality	full protection	more than 50%	less protective			
RSFWAQLGMALTRD (Synthetic peptide 9R11)									prevented ODN 1668-induced myDDosome formation	did not inhibit	did not inhibit
